This is an account of results in PMC4965013, “Open Source Drug Discovery with the Malaria Box Compound Collection for Neglected Diseases and Beyond” (PLoS Pathogens, 2016).

For assay [1], the system named is Saccharomyces cerevisiae strain WC081. Nature of the assay: Yeast disc diffusion in combination with artemisinin. Format: cell-based. The note with it: 10 µL of 1 mM on disc, 0.2 µM artemisinin, read-out: larger zone size with artemisinin (SCG+artemisinin minus SCG). The source says:
Yeast screening for enhanced drug effects in combination with artemisinin, Jensen group (data presented first in this paper). […] Yeast (S. cerevisiae) was used as a proxy for P. falciparum, because the killing of S. cerevisiae and P. falciparum appear to have similarities. Saccharomyces cerevisiae strain WC081 (Mat a, leu2∆0, lys2∆0, ura3∆0, his3∆1, pdr1∆::HIS3, pdr3∆::kanMX4) was utilized and was originally derived from strain BY4742. Regulators of Multi-drug resistance transporters have been deleted from this strain to enhance the toxicity of compounds. Assay utilized the disc diffusion method with the observance of a clear zone indicating inhibition of growth. Synthetic complete medium containing 3% glycerol as a carbon source (SCG) was used in each assay. 10 µL of each compound at 1 mM was added to a paper disc which was placed on SCG and SCG^+artemisinin (0.2 µM) plates seeded with 10e6 yeast cells. Plates were incubated at 30 °C for 5 days and clear zones were measured. Compounds that produced a larger clear zone in the presence of artemisinin were considered to have an additive interaction with artemisinin. Results are reported as diameter of clear zone on SCG^+artemisinin plates - diameter of clear zone on SCG plates without artemisinin.
On the technique in general: Agar diffusion results depend on both activity and mobility in agar.

The test system of assay [2] is P. falciparum 3D7 trophozoites. The assay is described as follows: Metabolomic fingerprint profiling LC-MS. Format: cell-based, Plasmodium falciparum. Also noted: UDP-D-glucose / ADP-D-glucose: unit not given here.
Another assay relates to P. falciparum. Nature of the assay: EC50 listed in S2 Table Metabolomics (used to set the concentration tested). Format: cell-based. The note with it: Plasmodium falciparum; EC50 used for Factor_XEC50 in metabolomics; read-out: EC50_nM.
For another assay, the target named is T1, PfMTIP-MyoA (Plasmodium falciparum, UniProt Q8I4W8).
T1 construct: made in house; host or cells: E. coli BL21 DE3 (peptide)
Nature of the assay: SPR MTIP-MyoA PPI. Format: binding, P. falciparum. The procedure:
Atg8-Atg3, Aldolase-TRAP, and Aldolase-MTRAP, MTIP-MyoA, GAP50-FactorH protein-protein interaction (PPI) inhibitor and Surface Plasmon Resonance screening to identify protein-protein interaction inhibitors, Bosch group (Atg8-Atg3 interactions are published in ref [38], rest are not or as noted below). In a primary screen, the Malaria Box compounds were screened at 5 µM final concentration in 1x PBS supplemented with 0.01% (v/v) P20 and 1% (v/v) DMSO using a Biacore 3000 instrument. While one protein was covalently attached to the chip surface via amine coupling, the analyte was passed over the chip in the presence and absence of Malaria Box compounds. Every 12th injection a positive control was passed over the chip to ensure constant binding of the partner protein during the duration of the experiment. Malaria Box compounds resulting in more than 25% decrease in binding of the two proteins to each other were further considered in a dose-response screen ranging from 50 µM to 200 nM. Similar to the primary screen, a positive control, consisting of the protein partner alone in the absence of small molecule compounds, was passed over the flow cells to ensure that the chip surface had not decayed over the course of the experiment. All SPR interaction studies were performed as previously described. […]

In another assay the target is PfPMT (Plasmodium falciparum, UniProt Q8IDQ9). Nature of the assay: PfPMT gene replacement yeast growth. To be noted: 100µM.
Setting [3] is: metabolite level change after treatment.

pEC50: −log10 of the molar value.

T1 sequence (Q8I4W8 entry or part of it): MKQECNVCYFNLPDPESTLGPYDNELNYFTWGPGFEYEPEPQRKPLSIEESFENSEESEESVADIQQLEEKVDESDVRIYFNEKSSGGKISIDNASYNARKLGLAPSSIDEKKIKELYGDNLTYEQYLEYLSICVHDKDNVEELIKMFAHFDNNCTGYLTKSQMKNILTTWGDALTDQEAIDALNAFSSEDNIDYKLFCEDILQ
Chain of PfPMT (Q8IDQ9 whole entry): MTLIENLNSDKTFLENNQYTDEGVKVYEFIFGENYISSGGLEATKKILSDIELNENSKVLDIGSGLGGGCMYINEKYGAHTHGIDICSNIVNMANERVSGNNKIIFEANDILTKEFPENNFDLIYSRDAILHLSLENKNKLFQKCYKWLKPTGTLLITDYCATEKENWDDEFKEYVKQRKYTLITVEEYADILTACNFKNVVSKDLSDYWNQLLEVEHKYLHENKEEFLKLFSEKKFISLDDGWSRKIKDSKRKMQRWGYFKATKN

Consider `Cc1cc(Nc2ccc3ccccc3c2)n2ncnc2n1` [MMV011099], for which the zone of inhibition at 1000 µM in assay [1] is 7 mm. Also, in assay [2] (S2 Table Metabolomics, metabolite Acetyllysine), the Acetyllysine is 0.02852. Moreover, in assay [2] (S2 Table Metabolomics, metabolite N-acetyl-L-ornithine), the N-acetyl-L-ornithine came out at 0.1505. Also, the N-carbamoyl-L-aspartate in assay [2] (S2 Table Metabolomics, metabolite N-carbamoyl-L-aspartate) is given as 3.868. In addition, the NADPH in assay [2] (S2 Table Metabolomics, metabolite NADPH) is listed as 1.182. Besides, in assay [2] (S2 Table Metabolomics, metabolite dAMP), the dAMP is listed as -0.08024. Besides, the dCMP in assay [2] (S2 Table Metabolomics, metabolite dCMP) is -0.5906. For the same compound, the dTDP in assay [2] (S2 Table Metabolomics, metabolite dTDP) is given as -1.017. Besides, in assay [2] (S2 Table Metabolomics, metabolite dTMP), the dTMP is recorded as -0.9279. In addition, the dTTP in assay [2] (S2 Table Metabolomics, metabolite dTTP) was -1.156. Further, the dihydroorotate in assay [2] (S2 Table Metabolomics, metabolite dihydroorotate) is reported as 4.157. Moreover, the orotate in assay [2] (S2 Table Metabolomics, metabolite orotate) is -1.974. In assay [2] (S2 Table Metabolomics, peptide DLH), this compound gave a DLH of 0.4532. Besides, in assay [2] (S2 Table Metabolomics, peptide DLS/SDL/SID), the DLS/SDL/SID stood at 0.4641. The compound further displayed a PD in assay [2] (S2 Table Metabolomics, peptide PD) of 0.1181. In assay [2] (S2 Table Metabolomics, peptide PEE), this compound displayed a PEE of 0.2947. This compound also showed a PVNF in assay [2] (S2 Table Metabolomics, peptide PVNF) of 0.2329. The 3-phosphoglycerate in assay [2] (metabolite 3-phosphoglycerate, S2 Table Metabolomics) is recorded as -0.2056. For the same compound, the ADP-D-glucose in assay [2] (metabolite ADP-D-glucose, S2 Table Metabolomics) is 0.1525. The ATP in assay [2] (metabolite ATP, S2 Table Metabolomics) is 0.2332. Besides, in assay [2] (metabolite CDP, S2 Table Metabolomics, change in metabolite level after compound treatment), the CDP is -0.709. Besides, in assay [2] (metabolite D-sedoheptulose-1/7-phosphate, S2 Table Metabolomics, change in metabolite level after compound treatment), the D-sedoheptulose-1/7-phosphate was determined as 0.01889. In addition, in assay [2] (metabolite FAD, S2 Table Metabolomics), the FAD was 0.08024. Moreover, the GMP in assay [2] (metabolite GMP, S2 Table Metabolomics, change in metabolite level after compound treatment) came out at 0.02967. Also, in assay [2] (metabolite NAD+, S2 Table Metabolomics), the “NAD+” value is on record as -0.0008425. For the same compound, the “NADP+” value in assay [2] (metabolite NADP+, S2 Table Metabolomics) amounted to 0.1353. The “Octoluse Bisphosphate” value in assay [2] (metabolite Octoluse Bisphosphate, S2 Table Metabolomics, change in metabolite level after compound treatment) is on record as 0.08614. Moreover, the Pyroglutamic acid in assay [2] (metabolite Pyroglutamic acid, S2 Table Metabolomics) is on record as -0.4752. For the same compound, the UDP-D-glucose in assay [2] (metabolite UDP-D-glucose, S2 Table Metabolomics) is on record as 0.067. The UDP-D-glucuronate in assay [2] (metabolite UDP-D-glucuronate, S2 Table Metabolomics) was -0.02366. In addition, in assay [2] (metabolite UDP-N-acetyl-glucosamine, S2 Table Metabolomics), the UDP-N-acetyl-glucosamine is on record as -0.1127. For the same compound, the UDP in assay [2] (metabolite UDP, S2 Table Metabolomics, change in metabolite level after compound treatment) was -1.3628. For the same compound, the UMP in assay [2] (metabolite UMP, S2 Table Metabolomics, change in metabolite level after compound treatment) was -1.675. The UTP in assay [2] (metabolite UTP, S2 Table Metabolomics, change in metabolite level after compound treatment) is reported as -1.64. Further, the a-ketoglutarate in assay [2] (metabolite a-ketoglutarate, S2 Table Metabolomics) was -1.062. Besides, in assay [2] (metabolite citrate/isocitrate, S2 Table Metabolomics, change in metabolite level after compound treatment), the citrate/isocitrate was -1.28. Moreover, the cytidine in assay [2] (metabolite cytidine, S2 Table Metabolomics) came out at 0.7717. The dATP in assay [2] (metabolite dATP, S2 Table Metabolomics) amounted to 0.5433. Moreover, the dGMP/AMP in assay [2] (metabolite dGMP/AMP, S2 Table Metabolomics, change in metabolite level after compound treatment) is -0.03244. Besides, the fumarate in assay [2] (metabolite fumarate, S2 Table Metabolomics, change in metabolite level after compound treatment) was -1.091. Besides, the glucose-1/6-phosphate in assay [2] (metabolite glucose-1/6-phosphate, S2 Table Metabolomics, change in metabolite level after compound treatment) is listed as 0.2093. In assay [2] (metabolite glycerate, S2 Table Metabolomics, change in metabolite level after compound treatment), the glycerate was -1.246. In assay [2] (metabolite guanine, S2 Table Metabolomics, change in metabolite level after compound treatment), the guanine was -0.547. The guanosine in assay [2] (metabolite guanosine, S2 Table Metabolomics, change in metabolite level after compound treatment) is on record as -1.524. In addition, the hypoxanthine in assay [2] (metabolite hypoxanthine, S2 Table Metabolomics) stood at 0.001118. In addition, the indole in assay [2] (metabolite indole, S2 Table Metabolomics) was 0.03287. Further, in assay [2] (metabolite inosine, S2 Table Metabolomics, change in metabolite level after compound treatment), the inosine is listed as -0.4013. Besides, in assay [2] (setting [3]), the 2_3-Diphosphoglyceric acid is on record as -0.01924, the 4-phosphopantothenate is -0.6208, the 6-phospho-D-gluconate was found to be 0.1135 and the FMN is given as -0.06047. Moreover, in assay [2] (setting [3]), the IMP was -0.0451, the Pyrophosphate worked out at 0.1187, the Sedoheptoluse bisphosphate is listed as -0.1999 and the cyclic-AMP is reported as -0.1393. In assay [2] (setting [3]), the glutathione disulfide is -0.2357, the lactate is reported as -0.8843 and the myo-inositol is recorded as -1.14. Besides, the nicotinate in assay [2] (metabolite nicotinate, S2 Table Metabolomics) is reported as -1.365. Besides, the ornithine in assay [2] (metabolite ornithine, S2 Table Metabolomics) amounted to 0.02843. The phosphoenolpyruvate in assay [2] (metabolite phosphoenolpyruvate, S2 Table Metabolomics) was -0.5081. In assay [2] (metabolite pyruvate, S2 Table Metabolomics, change in metabolite level after compound treatment), the pyruvate is listed as -1.9111. Moreover, the ribose-phosphate in assay [2] (metabolite ribose-phosphate, S2 Table Metabolomics) is given as 0.184. The sarcosine/alanine in assay [2] (metabolite sarcosine/alanine, S2 Table Metabolomics, change in metabolite level after compound treatment) is -0.4398. Moreover, the sn-glycerol-3-phosphate in assay [2] (metabolite sn-glycerol-3-phosphate, S2 Table Metabolomics) was -0.3081. Besides, in assay [2] (metabolite succinate/methylmalonic acid, S2 Table Metabolomics, change in metabolite level after compound treatment), the succinate/methylmalonic acid is given as -0.5239. Further, in assay [2] (metabolite uridine, S2 Table Metabolomics, change in metabolite level after compound treatment), the uridine was -1.376. Besides, in assay [2] (metabolite xanthosine, S2 Table Metabolomics, change in metabolite level after compound treatment), the xanthosine was -0.974. The pEC50 with P. falciparum is 6.62.
Regarding `Cc1ccc(CN2CCC(C(=O)Nc3ccc(-c4cc5ccccc5[nH]4)cc3)CC2)o1` [MMV666071], the “identified against the PfMTIP-MyoA interaction” value at PfMTIP-MyoA is “identified against the PfMTIP-MyoA interaction”.
In the case of `O=C(NC(c1ccccc1)c1ccc2cccnc2c1O)c1ccccc1` (stereo not drawn) [MMV666080], the “identified against the PfMTIP-MyoA interaction” value at PfMTIP-MyoA is “identified against the PfMTIP-MyoA interaction”. Moreover, at PfPMT, the “candidate inhibitors of PfPMT activity (yeast functional assay)” value is given as “candidate inhibitors of PfPMT activity”.
